Experiments:
Type in all cases: in vivo
[1] = system: barnyardgrass (Echinochloa crus-galli); test: Test A pre-/postemergence plant response
In short: (§1)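 Injury was scored visually after roughly ten days against untreated controls, 0 = no effect, 100 = complete control. Test chemicals in a surfactant-containing non-phytotoxic solvent were sprayed either onto soil preemergence or onto one- to two-leaf, 2–10 cm plants postemergence.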

corn (Zea mays) = test: Test A pre-/postemergence plant response
In short: as §1

[2] = system: giant foxtail (Setaria faberii); test: Test A pre-/postemergence plant response
In short: as §1

[3] = system: large crabgrass (Digitaria sanguinalis); test: Test A pre-/postemergence plant response
In short: as §1

[4] = system: morningglory (Ipomoea spp.); test: Test A pre-/postemergence plant response
In short: as §1

[5] = system: pigweed (Amaranthus retroflexus); test: Test A pre-/postemergence plant response
In short: as §1

[6] = system: velvetleaf (Abutilon theophrasti); test: Test A pre-/postemergence plant response
In short: as §1

[7] = system: wheat (Triticum aestivum); test: Test A pre-/postemergence plant response
In short: as §1

[8] = system: winter barley (Hordeum vulgare); test: Test B postemergence plant response; conditions: for Barley plant response rating (0 to 100 scale): 0 is no effect
In short: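 Visual ratings from 0 (no effect) to 100 (complete control), made against controls 13–15 days after treatment, kept in a greenhouse. Compounds were applied postemergence to potted plants at the 1- to 4-leaf stage (2–18 cm).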

[9] = system: barnyardgrass (Echinochloa crus-galli); test: Test B flooded paddy test; conditions: for Plant response rating, Flood, Barnyardgrass: 250 g ai/ha, flooded paddy test, visual rating on 0 to 100 scale (0 no effect, 100 complete control) after 13 to 15 days; for Plant response rating, Barnyardgrass: Flood (flooded paddy test), 13 to 15 days; for Barnyardgrass plant response rating: Flood, 31 g ai/ha, scale 0 to 100 (0 no effect, 100 complete control)
In short: (§2)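 Post-flood paddy application: compounds are introduced into water 3 cm deep over the soil, reaching plants at the 2-leaf stage. The water level is maintained, and after 13–15 days under greenhouse conditions, response is judged by eye relative to controls, where 100 means complete control.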

[10] = system: ducksalad (Heteranthera limosa); test: Test B flooded paddy test; conditions: for Plant response rating, Flood, Ducksalad: 250 g ai/ha, flooded paddy test, visual rating on 0 to 100 scale (0 no effect, 100 complete control) after 13 to 15 days; for Plant response rating, Ducksalad: Flood (flooded paddy test), 13 to 15 days; for Ducksalad plant response rating: Flood, 31 g ai/ha, scale 0 to 100 (0 no effect, 100 complete control)
In short: as §2

rice (Oryza sativa) = test: Test B flooded paddy test; conditions: for Plant response rating, Flood, Rice: 250 g ai/ha, flooded paddy test, visual rating on 0 to 100 scale (0 no effect, 100 complete control) after 13 to 15 days; for Plant response rating, Rice: Flood (flooded paddy test), 13 to 15 days; for Rice plant response rating: Flood, 31 g ai/ha, scale 0 to 100 (0 no effect, 100 complete control)
In short: as §2

[11] = system: umbrella sedge (Cyperus difformis); test: Test B flooded paddy test; conditions: for Plant response rating, Flood, Sedge, Umbrella: 250 g ai/ha, flooded paddy test, visual rating on 0 to 100 scale (0 no effect, 100 complete control) after 13 to 15 days; for Plant response rating, Sedge, Umbrella: Flood (flooded paddy test), 13 to 15 days; for Sedge, Umbrella plant response rating: Flood, 31 g ai/ha, scale 0 to 100 (0 no effect, 100 complete control)
In short: as §2

[12] = Postemergence, 125 g ai/ha, 0 to 100 scale where 0 is no effect and 100 is complete control
[13] = Postemergence, 500 g ai/ha, 0 to 100 scale, 0 = no effect, 100 = complete control, approx. ten days
[14] = Preemergence, 125 g ai/ha, 0 to 100 scale, 0 = no effect, 100 = complete control
[15] = Preemergence, 500 g ai/ha, visual injury, 0 to 100 scale (0 no effect, 100 complete control), approx. ten days
[16] = 62 g ai/ha, postemergence, 100 is complete control, 13 to 15 days
[17] = Postemergence, 125 g ai/ha, scale 0 to 100 (0 no effect, 100 complete control)
[18] = 62 g ai/ha, scale of 0 to 100 where 0 is no effect and 100 is complete control
[19] = Postemergence, 500 g ai/ha, visual injury, 0 to 100 scale (0 no effect, 100 complete control), approx. ten days
[20] = Preemergence, 500 g ai/ha, 0 to 100 scale, 0 = no effect, 100 = complete control
[21] = Postemergence, 31 g ai/ha, 0 to 100 scale (0 no effect, 100 complete control)
[22] = Postemergence, 250 g ai/ha, scale 0 to 100 (0 no effect, 100 complete control), 13 to 15 days
[23] = 125 g ai/ha, scale 0 to 100, 0 is no effect, 100 is complete control

COCCCn1c(-c2cccc(C)c2)ncc(C(=O)C2=C(O)CCCC2=O)c1=O [Compound 118, 5-[(2-hydroxy-6-oxo-1-cyclohexane-1-yl)carbonyl]-3-(3-methoxypropyl)-2-(3-methylphenyl)-4(3H)-pyrimidinone]
50: Plant response rating, Foxtail, Giant [2, 15] | Plant response rating, Barnyardgrass [9, 18]
10: Plant response rating, Foxtail, Giant [2, 14] | Plant response rating, Morningglory [4, 14] | Plant response rating, Wheat [7, 13]
0: Plant response rating, Corn (corn (Zea mays); [12]) | Plant response rating, Corn (corn (Zea mays); [14]) | Plant response rating, Corn (corn (Zea mays); [15]) | Plant response rating, Wheat [7, 12] | Plant response rating, Wheat [7, 14] | Plant response rating, Wheat [7, 15] | Plant response rating, Barley ([8]; 31 g ai/ha, postemergence, scale 0 to 100, 0 is no effect, 100 is complete control) | Barley plant response rating (0 to 100 scale) [8, 16] | Plant response rating, Barley [8, 17] | Plant response rating, Barley ([8]; Postemergence, 250 g ai/ha, scale 0 to 100 (0 no effect, 100 complete control)) | Plant response rating, Rice (rice (Oryza sativa); [18])
60: Plant response rating, Crabgrass, Large [3, 14]
90: Plant response rating, Barnyardgrass [1, 12] | Plant response rating, Barnyardgrass [1, 13] | Plant response rating, Barnyardgrass [1, 15] | Plant response rating, Foxtail, Giant [2, 13] | Plant response rating, Crabgrass, Large [3, 12] | Plant response rating, Crabgrass, Large [3, 13] | Plant response rating, Crabgrass, Large [3, 15] | Plant response rating, Pigweed [5, 14]
80: Plant response rating, Foxtail, Giant [2, 12] | Plant response rating, Velvetleaf [6, 15]
100: Plant response rating, Morningglory [4, 12] | Plant response rating, Morningglory [4, 13] | Plant response rating, Pigweed [5, 12] | Plant response rating, Pigweed [5, 13] | Plant response rating, Pigweed [5, 15] | Plant response rating, Velvetleaf [6, 12] | Plant response rating, Velvetleaf [6, 13] | Plant response rating, Flood, Ducksalad [10] | Plant response rating, Ducksalad [10, 18]
70: Plant response rating, Morningglory [4, 15] | Plant response rating, Velvetleaf [6, 14] | Plant response rating, Flood, Barnyardgrass [9] | Plant response rating, Sedge, Umbrella [11, 18]
30: Plant response rating, Barnyardgrass [1, 14] | Plant response rating, Corn (corn (Zea mays); [13])
15: Plant response rating, Flood, Rice (rice (Oryza sativa))
85: Plant response rating, Flood, Sedge, Umbrella [11]

O=C(C1=C(O)C2CCC(C2)C1=O)c1cnc(-c2ccsc2)n(CC2CCCO2)c1=O (stereo not shown) [Compound 229]
20: Wheat plant response rating [7, 19] | Plant response rating, Flood, Rice (rice (Oryza sativa))
5: Plant response rating, Barley [8, 17]
70: Plant response rating, Barnyardgrass [1, 20] | Plant response rating, Flood, Sedge, Umbrella [11]
40: Corn plant response rating (corn (Zea mays); [19]) | Plant response rating, Morningglory [4, 14] | Plant response rating, Flood, Ducksalad [10]
90: Plant response rating, Barnyardgrass [1, 12] | Plant response rating, Foxtail, Giant [2, 12] | Plant response rating, Pigweed [5, 14]
60: Plant response rating, Foxtail, Giant [2, 20]
50: Plant response rating, Foxtail, Giant [2, 14] | Plant response rating, Sedge, Umbrella [11, 23]
100: Barnyardgrass plant response rating [1, 19] | Foxtail, Giant plant response rating [2, 19] | Crabgrass, Large plant response rating [3, 19] | Plant response rating, Crabgrass, Large [3, 20] | Plant response rating, Morningglory [4, 12] | Morningglory plant response rating [4, 19] | Plant response rating, Pigweed [5, 12] | Pigweed plant response rating [5, 19] | Plant response rating, Pigweed [5, 20] | Plant response rating, Velvetleaf [6, 12] | Velvetleaf plant response rating [6, 19] | Plant response rating, Velvetleaf [6, 14] | Plant response rating, Velvetleaf [6, 20]
80: Plant response rating, Crabgrass, Large [3, 12] | Plant response rating, Crabgrass, Large [3, 14] | Plant response rating, Morningglory [4, 20]
30: Plant response rating, Flood, Barnyardgrass [9]
25: Plant response rating, Barley [8, 22]
0: Plant response rating, Barnyardgrass [1, 14] | Plant response rating, Corn (corn (Zea mays); [12]) | Plant response rating, Corn (corn (Zea mays); [14]) | Plant response rating, Corn (corn (Zea mays); [20]) | Plant response rating, Wheat [7, 12] | Plant response rating, Wheat [7, 14] | Plant response rating, Wheat [7, 20] | Plant response rating, Barley [8, 21] | Plant response rating, Barley ([8]; Postemergence, 62 g ai/ha, scale 0 to 100 (0 no effect, 100 complete control)) | Plant response rating, Barnyardgrass [9, 18] | Plant response rating, Barnyardgrass [9, 23] | Barnyardgrass plant response rating [9] | Plant response rating, Ducksalad [10, 18] | Plant response rating, Ducksalad [10, 23] | Ducksalad plant response rating [10] | Plant response rating, Rice (rice (Oryza sativa); [18]) | Plant response rating, Rice (rice (Oryza sativa); [23]) | Rice plant response rating (rice (Oryza sativa)) | Plant response rating, Sedge, Umbrella [11, 18] | Sedge, Umbrella plant response rating [11]

CCCn1c(-c2cccc(C(F)(F)F)c2)ncc(C(=O)C2=C(O)CCCC2=O)c1=O [Compound 155]
40: Plant response rating, Corn (corn (Zea mays); [13])
20: Plant response rating, Corn (corn (Zea mays); [12]) | Plant response rating, Barnyardgrass [9, 23]
80: Plant response rating, Foxtail, Giant [2, 12]
100: Plant response rating, Barnyardgrass [1, 13] | Plant response rating, Morningglory [4, 12] | Plant response rating, Morningglory [4, 13] | Plant response rating, Pigweed [5, 12] | Plant response rating, Pigweed [5, 13] | Plant response rating, Velvetleaf [6, 12] | Plant response rating, Velvetleaf [6, 13] | Plant response rating, Velvetleaf [6, 20] | Plant response rating, Flood, Sedge, Umbrella [11]
30: Plant response rating, Corn (corn (Zea mays); [15]) | Plant response rating, Foxtail, Giant [2, 14] | Plant response rating, Wheat [7, 13] | Barley plant response rating (0 to 100 scale) [8, 16] | Plant response rating, Barley [8, 21]
85: Plant response rating, Barley [8, 22] | Plant response rating, Ducksalad [10, 23] | Plant response rating, Sedge, Umbrella [11, 23]
0: Plant response rating, Corn (corn (Zea mays); [14]) | Plant response rating, Morningglory [4, 14] | Plant response rating, Morningglory [4, 15] | Plant response rating, Wheat [7, 12] | Plant response rating, Wheat [7, 14] | Plant response rating, Wheat [7, 20] | Plant response rating, Barnyardgrass [9, 18] | Barnyardgrass plant response rating [9] | Ducksalad plant response rating [10] | Plant response rating, Rice (rice (Oryza sativa); [18]) | Rice plant response rating (rice (Oryza sativa))
95: Plant response rating, Flood, Ducksalad [10]
45: Plant response rating, Barley [8, 17] | Plant response rating, Flood, Barnyardgrass [9] | Plant response rating, Flood, Rice (rice (Oryza sativa))
25: Plant response rating, Rice (rice (Oryza sativa); [23])
60: Plant response rating, Foxtail, Giant [2, 15] | Plant response rating, Crabgrass, Large [3, 14] | Plant response rating, Velvetleaf [6, 14] | Plant response rating, Ducksalad [10, 18] | Plant response rating, Sedge, Umbrella [11, 18] | Sedge, Umbrella plant response rating [11]
90: Plant response rating, Barnyardgrass [1, 12] | Plant response rating, Barnyardgrass [1, 15] | Plant response rating, Foxtail, Giant [2, 13] | Plant response rating, Crabgrass, Large [3, 13] | Plant response rating, Crabgrass, Large [3, 15] | Plant response rating, Pigweed [5, 14] | Plant response rating, Pigweed [5, 15]
70: Plant response rating, Crabgrass, Large [3, 12]
10: Plant response rating, Barnyardgrass [1, 14]

Source: patent US8952024B2, “Herbicidal pyrimidone derivatives” (E I du Pont de Nemours and Company, priority 2009, dated 2015)
